According to patent publication US8686113B2 (priority 2009, dated 2014):
≈ marks a conversion by molar mass, not a printed value. Non-standard residues stand in square brackets, D forms with d. Residues, ends and D or L forms follow the SMILES beside them. β3hR = N=C(N)NCCC[C@H](N)CC(=O)O; Agp = N=C(N)NC[C@H](N)C(=O)O; Orn = NCCC[C@H](N)C(=O)O

Experiments:
M. luteus 10240 = assay: Growth inhibition assay (microdilution MIC); type: cell-based, Micrococcus luteus; details: 10240, 20 h
Protocol: (§1) The minimum inhibitory concentrations (MIC) of the antimicrobial peptides and peptide derivatives were determined in microdilution assays. These used a continuous peptide dilution in sterile flat-bottomed 96-well microtiter plates (polystyrene, Greiner Bio-One GmbH, Frickenhausen, Germany) and a total volume of 100 μL per well. The aqueous peptide or peptidomimetic solutions were diluted with 1% TSB water, to obtain a final concentration of 256 μg/mL. 50 μL of the peptide or peptidomimetic solution was pipetted into the first well of each series and stirred. From this solution, 50 μL was transferred to the second well, stirred and again 50 μL was transferred to the next well, and so on. A double dilution series is obtained, beginning at 256 μg/mL in the first well to 125 ng/mL in the twelfth well. The bacteria, e.g. E. coli BL21 A1, were cultured overnight at 37° C. in nutrient broth (NB, Carl Roth GmbH+Co. KG, Karlsruhe, Germany). 50 μL of a 5×10^6 bacteria/mL suspension in 1% TSB was added to each well of the microtiter plate and thus a final concentration of the peptides or peptidomimetics from 128 μg/mL (well 1) to 62.5 ng/mL (well 12) was established in each series. The plates were incubated at 37° C. for 20 h and then the absorption was measured at 595 nm with a TECAN microtiter plate spectrophotometer (Tecan Trading AG, Mannedorf, Switzerland). The MIC values of all peptides and peptidomimetics were determined in triplicate. Sterile water was used as negative control. The MIC value represents the lowest peptide concentration at which no bacterial growth is observed after an incubation time of 20 h at 37° C.
(§2) The MIC values of the peptides and peptide derivatives against Escherichia coli BL21 A1 and Micrococcus luteus ATCC 10240 are given in Table 7.

E. coli BL21 A1 = type: cell-based, Escherichia coli; details: BL21, 20 h
Protocol: as §1, §2

| Compound | MIC M. luteus 10240 (M. luteus 10240) | MIC E. coli BL21 A1 (E. coli BL21 A1) |
| --- | --- | --- |
| CC[C@H](C)[C@H](NC(=O)[C@H](CCCNC(=N)N)NC(=O)[C@H](CCCNC(=N)N)NC(=O)[C@@H]1CCCN1C(=O)[C@@H]1CCCN1C(=O)[C@H](CCCNC(=N)N)NC(=O)[C@@H]1CCCN1C(=O)[C@H](CCCNC(=N)N)NC(=O)[C@@H]1CCCN1C(=O)[C@H](CC(C)C)NC(=O)[C@H](Cc1ccc(O)cc1)NC(=O)[C@@H]1CCCN1C(=O)[C@@H]1CCCN1C(=O)[C@H](CCCCN)NC(=O)[C@H](CC(=O)O)NC(=O)[C@@H](N)C(C)C)C(=O)N[C@@H](Cc1ccc(O)cc1)C(=O)N[C@@H](CC(N)=O)C(=O)N[C@@H](CNC(=N)N)C(N)=O [compound 54] (H-VDKPPYLPRPRPPRRIYN[Agp]-NH2) | 8 µg/mL (≈ 3.39 µM) | 8 µg/mL (≈ 3.39 µM) |
| CC[C@H](C)[C@H](NC(=O)C[C@H](CCCNC(=N)N)NC(=O)[C@H](CCCNC(=N)N)NC(=O)[C@@H]1CCCN1C(=O)[C@@H]1CCCN1C(=O)[C@H](CCCNC(=N)N)NC(=O)[C@@H]1CCCN1C(=O)[C@H](CCCNC(=N)N)NC(=O)[C@@H]1CCCN1C(=O)[C@H](CC(C)C)NC(=O)[C@H](Cc1ccc(O)cc1)NC(=O)[C@@H]1CCCN1C(=O)[C@@H]1CCCN1C(=O)[C@H](CCCCN)NC(=O)[C@H](CC(=O)O)NC(=O)[C@@H](N)C(C)C)C(=O)N[C@@H](Cc1ccc(O)cc1)C(=O)N[C@@H](CC(N)=O)C(=O)N[C@@H](CCCNC(=N)N)C(N)=O [compound 62] (H-VDKPPYLPRPRPPR[β3hR]IYNR-NH2) | 16 µg/mL (≈ 6.66 µM) | 4 µg/mL (≈ 1.66 µM) |
| H-VDKPPYLPRPFPPRRIYNR-OH [compound 13] | 32 µg/mL | 64 µg/mL |
| H-VDKPPYLPRPKPPRRIYNRN-OH [compound 6] | 16 µg/mL | 32 µg/mL |
| H-ADKPPYLPRPRPPRRIYNR-NH2 [compound 29] | 4 µg/mL | 8 µg/mL |
| H-VDKPPYIPRPRPPRRIYNR-NH2 [compound 77] | 8 µg/mL | 32 µg/mL |
| CC[C@H](C)[C@H](NC(=O)[C@H](Cc1ccc(O)cc1)NC(=O)[C@H](CC(N)=O)NC(=O)[C@@H](N)CCCN)C(=O)N[C@@H](CCCN)C(=O)N[C@@H](CCCNC(=N)N)C(=O)N1CCC[C@H]1C(=O)N1CCC[C@H]1C(=O)N[C@@H](CCCNC(=N)N)C(=O)N1CCC[C@H]1C(=O)N[C@@H](CCCNC(=N)N)C(=O)N1CCC[C@H]1C(=O)N[C@@H](CC(C)C)C(=O)N[C@@H](Cc1ccc(O)cc1)C(=O)N1CCC[C@H]1C(=O)N1CCC[C@H]1C(=O)N[C@@H](CCCCN)C(=O)N[C@@H](CC(=O)O)C(=O)N[C@H](C(N)=O)C(C)C [compound 113] (H-[Orn]NYI[Orn]RPPRPRPLYPPKDV-NH2) | 64 µg/mL (≈ 27.8 µM) | >256 µg/mL |
| H-VDKPPYLPRPHPPRRIYNNR-OH [compound 8] | 32 µg/mL | 64 µg/mL |
| H-VDKPAYLPRPRPPRRIYNR-NH2 [compound 33] | 8 µg/mL | 8 µg/mL |
| CC[C@H](C)[C@H](NC(=O)[C@H](CNC(=N)N)NC(=O)[C@H](CCCNC(=N)N)NC(=O)[C@@H]1CCCN1C(=O)[C@@H]1CCCN1C(=O)[C@H](CCCNC(=N)N)NC(=O)[C@@H]1CCCN1C(=O)[C@H](CCCNC(=N)N)NC(=O)[C@@H]1CCCN1C(=O)[C@H](CC(C)C)NC(=O)[C@H](Cc1ccc(O)cc1)NC(=O)[C@@H]1CCCN1C(=O)[C@@H]1CCCN1C(=O)[C@H](CCCCN)NC(=O)[C@H](CC(=O)O)NC(=O)[C@@H](N)C(C)C)C(=O)N[C@@H](Cc1ccc(O)cc1)C(=O)N[C@@H](CC(N)=O)C(=O)N[C@@H](CNC(=N)N)C(N)=O [compound 66] (H-VDKPPYLPRPRPPR[Agp]IYN[Agp]-NH2) | 4 µg/mL (≈ 1.71 µM) | 8 µg/mL (≈ 3.43 µM) |
